Assays:
guinea-pigs = assay: Gastric emptying measured by x-ray localization of barium sulfate spheroids in guinea pigs after i.p. administration; assay type: in vivo, guinea pig; details: for Gastric emptying after 2 hours: 5 mg/kg, control group 24.8%; for Gastric emptying after 2 hours / Gastric emptying (percentage of spheroids leaving the stomach) after 1 hour / Gastric emptying (percentage of spheroids leaving the stomach) after 2 hours: guinea-pigs; for Gastric emptying (percentage of spheroids leaving the stomach) after 1 hour / Gastric emptying (percentage of spheroids leaving the stomach) after 2 hours: 1 mg/kg i.p.; for Gastric emptying (percentage of spheroids leaving the stomach) after 2 hours: control group 28%; for Gastric emptying at 1 mg/kg compared with metoclopramide 5 mg/kg: 1 mg/kg of compound vs 5 mg/kg of metoclopramide
Description: Feeding of the animals were interrupted 14 hours before measurement of gastric emptying. The experimentation was conducted under weak illumination, with the least possible noise and disturbances, solely by experimentors having daily contact with the guinea pigs and having sufficient initial training in handling the animals. The animals were then subjected to minimal stress.
The measurement of gastric emptying was carried out by x-ray localization (50 KV, 30 mA, 0.5-0.8 s.), on Kodak plates (NS-2T, 13×18 cm) of barium sulfate spheroids (approximately 30, 1 mm in diameter) coated with polystyrene, which the guinea pigs were made to swallow by placing them in the back of the throat, in a solution of 0.2 ml of 1% carboxymethylcellulose with 0.05 ml of glycerine, so as to initiate rapid and voluntary deglutition.
The passage of the spheroids was followed for 3 to 4 hours, the animals being placed in their customary cages for that time and taken out only 5 minutes before x-ray exposure (at intervals of 30-60 minutes). During the x-ray procedure, the animals were placed in individual holding cages, keeping them comfortably in a stable position, the cage being sufficiently sized (33×15 cm and 13 cm high) so as to comfortably maintain a 450 to 550 gram guinea pig between the padded walls, the animal being trained to enter the cage and remain there tranquilly and without stress.
Gastric emptying was measured by the number of spheroids leaving the stomach. For each dose of product studied, 6 guinea pigs were used, and the responses were compared to those of guinea pigs receiving the appropriate vehicle.
Compound (I) was studied at doses of 1 mg/kg and 0.01 mg/kg, Compounds (II) to (V) were studied at a dose of 1 mg/kg, the compounds (VI) to (VIII) at a dose of 5 mg/kg. Metoclopramide was evaluated at doses of 1 mg/kg and 5 mg/kg.
The results are recorded in graphic form in FIG. 1. The compounds according to the invention and metoclopromide were dissolved in distilled water and the doses are expressed as base.
This emptying is expressed, in FIG. 1 and Table 1, as a percentage of spheroids leaving the stomach.

[1] = Acute toxicity, intravenous, male mice; details: mouse, in vivo, read-out: LD50 (median lethal dose)
Excerpt: The acute toxicity of the compounds of the invention administered intravenously was studied in male mice.

Row | Structure (SMILES) | Gastric emptying after 2 hours (guinea-pigs) | LD50 [1] | Gastric emptying (percentage of spheroids leaving the stomach) after 1 hour (guinea-pigs) | Gastric emptying (percentage of spheroids leaving the stomach) after 2 hours (guinea-pigs) | Gastric emptying at 1 mg/kg compared with metoclopramide 5 mg/kg (guinea-pigs) | Effect on gastric emptying (in words) (guinea-pigs; intraperitoneal, immobilized guinea-pigs, FIG. 1)
1 | COc1cc(NC2=NCCN2)c(Cl)cc1C(=O)NC(C)C [Compound VII, N-isopropyl-2-methoxy-4-[(4,5-dihydro-1H-imidazol-2-yl)amino]-5-chlorobenzamide] | 46.2% | – | – | – | – | –
2 | CCN(CC)CCNC(=O)c1cc(Cl)c(NC2=NCCO2)cc1OC [Compound III, N-[2-(diethylamino)ethyl]-2-methoxy-4-[(4,5-dihydro-2-oxazolyl)amino]-5-chlorobenzamide] | – | 91 to 116 mg/kg | 20% | 57% | – | –
3 | CCN(CC)CCNC(=O)c1cc(Cl)c(NC2=NCCN2)cc1O [Compound V, N-[2-(diethylamino)ethyl]-2-hydroxy-4-[(4,5-dihydro-1H-imidazol-2-yl)-amino]-5-chlorobenzamide] | – | 65.7 to 76.7 mg/kg | 32% | 55% | – | –
4 | CCN(CC)CCNC(=O)c1cc(Cl)c(NC2=NCCN2)cc1OC [Compound I, N-[2-(diethylamino)ethyl]-2-methoxy-4-[(4,5-dihydro-1H-imidazol-2-yl)-amino]-5-chlorobenzamide] | – | 12.8 to 14.4 mg/kg | 24% | 63% | a result equivalent to the use of 5 mg/kg of metoclopramide | –
5 | CCN(CC)CCNC(=O)c1cc(Cl)c(NC2=NCCS2)cc1OC [Compound II, N-[2-(diethylamino)ethyl]-2-methoxy-4-[(4,5-dihydro-2-thiazolyl)amino]-5-chlorobenzamide] | – | 40.6 to 48.7 mg/kg | 12.5% | 60% | – | –
6 | C=CCNC(=O)c1cc(Cl)c(NC2=NCCN2)cc1OC [Compound VIII, N-allyl-2-methoxy-4-[(4,5-dihydro-1H-imidazol-2-yl)amino]-5-chlorobenzamide] | 47.4% | – | – | – | – | –
7 | CCN(CC)CCNC(=O)c1cc(Cl)c(N)cc1OC [metoclopramide, N-(2-diethylaminoethyl)-2-methoxy-4-amino-5-chlorobenzamide, reference compound] | – | 25.4 to 37.9 mg/kg | 16% | 39% | – | an increase in gastric emptying
8 | CNC(=O)c1cc(Cl)c(NC2=NCCN2)cc1OC [Compound IV, N-methyl-2-methoxy-4-[(4,5-dihydro-1H-imidazol-2-yl)amino] -5-chlorobenzamide] | – | 95.8 to 138 mg/kg | 38% | 62% | a result equivalent to the use of 5 mg/kg of metoclopramide | –

Source: patent US5116857A, “Method of increasing gastrointestinal motility with substituted benzamides” (Laboratoires Delagrange Div. Societe d'Applications …, priority 1988, dated 1992)
